Tests used:
KB = test: SRB in vitro cytotoxicity assay, KB oral cancer cells; assay type: cell-based; settings: Homo sapiens, 48 h drug exposure, read-out: In vitro anticancer activity GI50, Oral KB
Source text: (§1) Compounds 4a-4z and 4aa-4ae have been evaluated for their in vitro cytotoxicity in selected human cancer cell lines i.e., colon (Colo205), lung (Hop-62, A549), cervix (SiHa), prostate (PC3), oral (KB, DWD, Gurav), Ovarian (A-2780) and breast (MCF7, Zr-75-1) origin by employing the sulforhodamine B (SRB) assay method (Skehn, P.; Storeng, R.; Scudiero, A.; Monks, J.; MeMohan, D.; Vistica, D.; Jonathan, T. W.; Bokesch, H.; Kenney, S.; Boyd M. R. J. Natl. Cancer Inst. 1990, 82, 1107).
(§2) The synthesized compounds have been evaluated for their in vitro cytotoxicity in human cancer cell lines. A protocol of 48 h continuous drug exposure has been used and a sulforhodamine B (SRB) protein assay has been used to estimate cell viability or growth. The cell lines were grown in DMEM medium containing 10% fetal bovine serum and 2 mM L-glutamine and were inoculated into 96 well microtiter plates in […] at plating densities depending on the doubling time of individual cell lines. The microliter plates were incubated at 37_C, 5% CO2, 95% air, and 100% relative humidity for 24 h prior to addition of experimental drugs. Aliquots of […] of the drug dilutions were added to the appropriate microliter wells already containing […] of cells, suiting in the required final drug concentrations. For each compound four concentrations (0.1, 1, 10 and 100 uM) were evaluated and each was done in triplicate wells. Plates were incubated further for 48 h and assay was terminated by the addition of […] of cold trichloro acetic acid (TCA) (final concentration, 10% TCA) and incubated for 60 min at 4_C. The plates were washed five times with tap water and airdried. Sulforhodamine B (SRB) solution ([…]) at 0.4% (w/v) in 1% acetic acid was added to each of the cells, and plates were incubated for 20 min at room temperature. The residual dye was removed by washing five times with 1% acetic acid. The plates were airdried. Bound stain was subsequently eluted with 10 mM trizma base, and the absorbance was read on an ELISA plate reader at a wavelength of 540 nm with 690 nm reference wavelengths. Percent growth was calculated on a plate by plate basis for test wells relative to control wells. The above determinations were repeated three times. Percentage growth was expressed as the (ratio of average absorbance of the test well to the average absorbance of the control wells)*100. Growth inhibition of 50% (GI50) was calculated from [(Ti−Tz)/(C−Tz)]*100 ¼ 50, which is the drug concentration resulting in a 50% reduction in the net protein increase (as measured by SRB staining) in control cells during the drug incubation. Where, Tz ¼ Optical density at time zero, OD of control ¼ C, and OD of test growth in the presence of drug ¼ Ti.

Hop62 = test: SRB in vitro cytotoxicity assay, Hop62 lung cancer cells; assay type: cell-based; settings: Homo sapiens, HOP-62, 48 h drug exposure, read-out: In vitro anticancer activity GI50, Lung Hop62
Source text: as §1, §2

Colo 205 = test: SRB in vitro cytotoxicity assay, Colo 205 colon cancer cells; assay type: cell-based; settings: Homo sapiens, 48 h drug exposure, read-out: In vitro anticancer activity GI50, Colon Colo 205
Source text: as §1, §2

MCF7 = test: SRB in vitro cytotoxicity assay, MCF7 breast cancer cells; assay type: cell-based; settings: Homo sapiens, 48 h drug exposure, read-out: In vitro anticancer activity GI50, Breast MCF7
Source text: as §1, §2

A-549 = test: SRB in vitro cytotoxicity assay, A-549 lung cancer cells; assay type: cell-based; settings: Homo sapiens, A549, 48 h drug exposure, read-out: In vitro anticancer activity GI50, Lung A-549
Source text: as §1, §2

SMILES | melting point [°C] | GI50 (Hop62) [µM] | GI50 (MCF7) [µM] | further results
COc1ccc(C2C3=C(COC3=O)Nc3ccc4cc(C)[nH]c4c32)c(F)c1 (stereo not drawn) [Compound 4m, 10-(2-fluoro-4-methoxyphenyl)-2-methyl-6,7,9,10-tetrahydro-1H-furo[3,4-b]pyrrolo[2,3-f]quinolin-9-one] | 205 to 207 | – | < 0.1 | –
COc1cc(C2C3=C(COC3=O)Nc3ccc4nn[nH]c4c32)cc(OC)c1OC (stereo not drawn) [Compound 4y, 10-(3,4,5-trimethoxyphenyl)-6,7,9,10-tetrahydro-1H-furo[3,4-b][1,2,3]triazolo[4,5-f]quinolin-9-one] | 324 to 325 | – | – | GI50 (KB): 2.9 µM
COc1cc(C2C3=C(COC3=O)Nc3c2cc(OC)c(OC)c3OC)ccc1O (stereo not drawn) [Compound 4ae, 9-(4-hydroxy-3-methoxyphenyl)-5,6,7-trimethoxy-1,3,4,9-tetrahydrofuro[3,4-b]quinolin-1-one] | 290 to 291 | – | 2.9 | –
COc1ccc(C2C3=C(COC3=O)Nc3ccc4nn[nH]c4c32)c(F)c1 (stereo not drawn) [Compound 4z, 10-(2-fluoro-4-methoxyphenyl)-6,7,9,10-tetrahydro-1H-furo[3,4-b][1,2,3]triazolo[4,5-f]quinolin-9-one] | 308 to 310 | – | < 0.1 | –
COc1ccc(C2C3=C(COC3=O)Nc3ccc4nc(S)[nH]c4c32)cc1O (stereo not drawn) [Compound 4x, 10-(3-hydroxy-4-methoxyphenyl)-2-sulfanyl-6,7,9,10-tetrahydro-1H-furo[3,4-b]imidazo[4,5-f]quinolin-9-one] | 334 to 337 | – | 2.7 | –
COc1ccc(-c2noc3c2C(c2cc(OC)c(OC)c(OC)c2)C2=C(COC2=O)N3)cc1 (stereo not drawn) [Compound 4aa, 3-(4-methoxyphenyl)-4-(3,4,5-trimethoxyphenyl)-4,5,7,8 tetrahydrofuro[3′,4′:5,6]pyrido[3,2-d]isoxazol-5-one] | 218 to 219 | 2.5 | – | –
COc1ccc(C2C3=C(COC3=O)Nc3ccc4cc[nH]c4c32)cc1[N+](=O)[O-] (stereo not drawn) [Compound 4i, 10-(4-methoxy-3-nitrophenyl)-6,7,9,10-tetrahydro-1H-furo[3,4-b]pyrrolo[2,3-f]quinolin-9-one] | – | – | – | GI50 (Colo 205): 2.4 µM

Now from value to compound, other results behind:

melting point [°C] | SMILES | GI50 (Hop62) [µM] | GI50 (MCF7) [µM] | further results
245 to 246 | COc1ccc(C2C3=C(COC3=O)Nc3onc(-c4ccc(Cl)cc4)c32)cc1O (stereo not drawn) [Compound 4ad, 3-(4-chlorophenyl)-4-(3-hydroxy-4-methoxyphenyl)-4,5,7,8-tetrahydrofuro[3′,4′:5,6]pyrido[3,2-d]isoxazol-5-one] | – | – | GI50 (KB): 2.7 µM
243 to 245 | COc1ccc(C2C3=C(COC3=O)Nc3ccc4cn[nH]c4c32)cc1O (stereo not drawn) [Compound 4p, 10-(3-hydroxy-4-methoxyphenyl)-6,7,9,10-tetrahydro-1H-furo[3,4-b]pyrazolo[3,4-f]quinolin-9-one] | 2.6 | – | GI50 (Colo 205): 2.6 µM
294 to 296 | COc1nc2c(c(OC)n1)C(c1ccc(O)c(OC)c1)C1=C(COC1=O)N2 (stereo not drawn) [Compound 4b, 5-(4-hydroxy-3-methoxyphenyl)-2,4-dimethoxy-5,6,8,9-tetrahydrofuro[3′,4′:5,6]pyrido[2,3-d]pyrimidin-6-one] | 2.7 | – | –
267 to 270 | COc1nc2c(c(OC)n1)C(c1ccc(F)c(OC)c1)C1=C(COC1=O)N2 (stereo not drawn) [Compound 4d, 5-(4-fluoro-3-methoxyphenyl)-2,4-dimethoxy-5,6,8,9-tetrahydrofuro[3′,4′:5,6]pyrido[2,3-d]pyrimidin-6-one] | – | – | GI50 (KB): 2.2 µM; GI50 (A-549): 2.6 µM
190 to 191 | COc1cc(C2C3=C(COC3=O)Nc3ccc4nc(C)sc4c32)ccc1[N+](=O)[O-] (stereo not drawn) [Compound 4w, 10-(3-methoxy-4-nitrophenyl)-2-methyl-6,7,9,10-tetrahydrofuro[3,4-b][1,3]thiazolo[5,4-f]quinolin-9-one] | – | 0.15 | –
284 to 285 | COc1nc2c(c(OC)n1)C(c1ccc(OC)c(O)c1)C1=C(COC1=O)N2 (stereo not drawn) [Compound 4c, 5-(3-hydroxy-4-methoxyphenyl)-2,4-dimethoxy-5,6,8,9-tetrahydrofuro[3′,4′:5,6]pyrido[2,3-d]pyrimidin-6-one] | 2.8 | – | –
